Experimental data as given in patent EP0449195B1, “Aminobenzene compounds, their production and use” (Takeda Chemical Industries, Ltd., priority 1990, dated 1991).

Tested on: N18-RE-105 cells
Assay: Protective activity to glutamic acid-induced necrocytosis in N18-RE-105 cells (cell lethal ratio from LDH activity)
Format: cell-based
Settings: glutamic acid (10 mM), cultivation 24 hours after addition, LDH activity in cells and medium, read-out: IC₅₀ (minimum concentrations for depressing cell lethal ratio to not more than 50%), Effect on glutamic acid cytotoxicity (cell lethal ratio)
Procedure: When a high concentration of glutamic acid (1 to 10 mM) is added to N18-RE-105 cells, neocrocytosis caused by oxidative stress due to inhibition of incorporation of cystine into cells is observed [Neuron 2, 1547 (1989); J. Pharmacol. Exp. Ther. 250, 1132 (1989)].
Activity of various compounds against this glutamic acid-induced necrocytosis was studied. About 10,000 cells were inoculated into a culture dish of 35 mm in diameter containing DMEM medium (1 ml). After cultivation for 24 hours, glutamic acid and a compound to be tested were added. After the medium was changed to DMEM mediums containing the compound in various concentrations and then glutamic acid (10 mM) was added. After addition of glutamic acid, cultivation was further continued for 24 hours. Then, surviving cells were collected and […] activity contained in the cells and medium was determined. A cell lethal ratio (%) was calculated according to the following formula: Cell lethal ratio (%) =(LDH activity in medium)/(LDH activity in cells + LDH activity in medium)x 100 [formula] Regarding the typical compounds of the present invention, minimum concentrations for depressing cell lethal ratio to not more than 50% (IC₅₀) is shown in Table 9.

4-[4-(1-phenyldecanylamino)phenyloxy]piperidine [Example 52]
IC50: 10 nM

4-(4-octylaminophenyloxy)piperidine [Example 45]
IC50: 5.5 nM
